Data as given in ChEMBL document CHEMBL5303573, “Mapping human microbiome drug metabolism by gut bacteria and their genes” (Nature, 2019).

Assay: The drug is tested on Ruminococcus torques strain: ATCC27756 for biotransformation. The drug concentrations were measured before and after a 12-h incubation by liquid-chromatography-coupled mass spectrometry (LC–MS)
Type: ADME
Set-up: dose 2 uM, timepoint 0 vs 12 hours
Conditions: 2 µM

SMILES | Bacterial Biotransformation
C=CCN1CC[C@]23c4c5ccc(O)c4O[C@H]2C(=O)CC[C@@]3(O)[C@H]1C5 [NALOXONE] | Compound metabolized
CN(C)CC(c1ccc(O)cc1)C1(O)CCCCC1.O=C(O)CCC(=O)O (configuration not stated) [DESVENLAFAXINE SUCCINATE] | Compound NOT metabolized
CCc1nn(CCCN2CCN(c3cccc(Cl)c3)CC2)c(=O)n1CCOc1ccccc1 [NEFAZODONE] | Compound NOT metabolized

Conditions: enterocloster bolteae, 12 h, 2 µM
Description: The drug is tested on Clostridium bolteae strain: ATCCBAA-613 for biotransformation. The drug concentrations were measured before and after a 12-h incubation by liquid-chromatography-coupled mass spectrometry (LC–MS)

SMILES | Bacterial Biotransformation
C=CCN1CC[C@]23c4c5ccc(O)c4O[C@H]2C(=O)CC[C@@]3(O)[C@H]1C5 [NALOXONE] | Compound NOT metabolized
CN(C)CC(c1ccc(O)cc1)C1(O)CCCCC1.O=C(O)CCC(=O)O (configuration not stated) [DESVENLAFAXINE SUCCINATE] | Compound NOT metabolized
CCc1nn(CCCN2CCN(c3cccc(Cl)c3)CC2)c(=O)n1CCOc1ccccc1 [NEFAZODONE] | Compound NOT metabolized

Assay: The drug is tested on Enterobacter cancerogenus strain: ATCC35316 for biotransformation. The drug concentrations were measured before and after a 12-h incubation by liquid-chromatography-coupled mass spectrometry (LC–MS)
Conditions: 2 µM

SMILES | Bacterial Biotransformation
C=CCN1CC[C@]23c4c5ccc(O)c4O[C@H]2C(=O)CC[C@@]3(O)[C@H]1C5 [NALOXONE] | Compound NOT metabolized
CN(C)CC(c1ccc(O)cc1)C1(O)CCCCC1.O=C(O)CCC(=O)O (configuration not stated) [DESVENLAFAXINE SUCCINATE] | Compound NOT metabolized
CCc1nn(CCCN2CCN(c3cccc(Cl)c3)CC2)c(=O)n1CCOc1ccccc1 [NEFAZODONE] | Compound NOT metabolized

Assay: The drug is tested on Coprococcus comes strain: ATCC27758 for biotransformation. The drug concentrations were measured before and after a 12-h incubation by liquid-chromatography-coupled mass spectrometry (LC–MS)
Type: ADME
Set-up: dose 2 uM, timepoint 0 vs 12 hours
Conditions: 2 µM

SMILES | Bacterial Biotransformation
C=CCN1CC[C@]23c4c5ccc(O)c4O[C@H]2C(=O)CC[C@@]3(O)[C@H]1C5 [NALOXONE] | Compound NOT metabolized
CN(C)CC(c1ccc(O)cc1)C1(O)CCCCC1.O=C(O)CCC(=O)O (configuration not stated) [DESVENLAFAXINE SUCCINATE] | Compound NOT metabolized
CCc1nn(CCCN2CCN(c3cccc(Cl)c3)CC2)c(=O)n1CCOc1ccccc1 [NEFAZODONE] | Compound NOT metabolized

Assay: The drug is tested on Bacteroides coprophilus strain: DSM18228 for biotransformation. The drug concentrations were measured before and after a 12-h incubation by liquid-chromatography-coupled mass spectrometry (LC–MS)
Conditions: 2 µM

SMILES | Bacterial Biotransformation
C=CCN1CC[C@]23c4c5ccc(O)c4O[C@H]2C(=O)CC[C@@]3(O)[C@H]1C5 [NALOXONE] | Compound metabolized
CN(C)CC(c1ccc(O)cc1)C1(O)CCCCC1.O=C(O)CCC(=O)O (configuration not stated) [DESVENLAFAXINE SUCCINATE] | Compound NOT metabolized
CCc1nn(CCCN2CCN(c3cccc(Cl)c3)CC2)c(=O)n1CCOc1ccccc1 [NEFAZODONE] | Compound NOT metabolized

Assay: The drug is tested on Clostridium asparagiforme strain: DSM15981 for biotransformation. The drug concentrations were measured before and after a 12-h incubation by liquid-chromatography-coupled mass spectrometry (LC–MS)
Type: ADME
Set-up: dose 2 uM, timepoint 0 vs 12 hours
Conditions: enterocloster asparagiformis, 2 µM

SMILES | Bacterial Biotransformation
C=CCN1CC[C@]23c4c5ccc(O)c4O[C@H]2C(=O)CC[C@@]3(O)[C@H]1C5 [NALOXONE] | Compound NOT metabolized
CN(C)CC(c1ccc(O)cc1)C1(O)CCCCC1.O=C(O)CCC(=O)O (configuration not stated) [DESVENLAFAXINE SUCCINATE] | Compound NOT metabolized
CCc1nn(CCCN2CCN(c3cccc(Cl)c3)CC2)c(=O)n1CCOc1ccccc1 [NEFAZODONE] | Compound NOT metabolized

Assay: The drug is tested on Bacteroides ovatus strain: ATCC8483 for biotransformation. The drug concentrations were measured before and after a 12-h incubation by liquid-chromatography-coupled mass spectrometry (LC–MS)
Conditions: 2 µM

SMILES | Bacterial Biotransformation
C=CCN1CC[C@]23c4c5ccc(O)c4O[C@H]2C(=O)CC[C@@]3(O)[C@H]1C5 [NALOXONE] | Compound metabolized
CN(C)CC(c1ccc(O)cc1)C1(O)CCCCC1.O=C(O)CCC(=O)O (configuration not stated) [DESVENLAFAXINE SUCCINATE] | Compound NOT metabolized
CCc1nn(CCCN2CCN(c3cccc(Cl)c3)CC2)c(=O)n1CCOc1ccccc1 [NEFAZODONE] | Compound NOT metabolized

Assay: The drug is tested on Parabacteroides merdae strain: ATCC43184 for biotransformation. The drug concentrations were measured before and after a 12-h incubation by liquid-chromatography-coupled mass spectrometry (LC–MS)
Conditions: 2 µM

SMILES | Bacterial Biotransformation
CN(C)CC(c1ccc(O)cc1)C1(O)CCCCC1.O=C(O)CCC(=O)O (configuration not stated) [DESVENLAFAXINE SUCCINATE] | Compound NOT metabolized
CCc1nn(CCCN2CCN(c3cccc(Cl)c3)CC2)c(=O)n1CCOc1ccccc1 [NEFAZODONE] | Compound NOT metabolized

Assay: The drug is tested on Bacteroides pectinophilus strain: ATCC43243 for biotransformation. The drug concentrations were measured before and after a 12-h incubation by liquid-chromatography-coupled mass spectrometry (LC–MS)
Conditions: 2 µM

SMILES | Bacterial Biotransformation
C=CCN1CC[C@]23c4c5ccc(O)c4O[C@H]2C(=O)CC[C@@]3(O)[C@H]1C5 [NALOXONE] | Compound NOT metabolized
CN(C)CC(c1ccc(O)cc1)C1(O)CCCCC1.O=C(O)CCC(=O)O (configuration not stated) [DESVENLAFAXINE SUCCINATE] | Compound NOT metabolized
CCc1nn(CCCN2CCN(c3cccc(Cl)c3)CC2)c(=O)n1CCOc1ccccc1 [NEFAZODONE] | Compound NOT metabolized

Conditions: bacteroides stercoris, 12 h, 2 µM
Description: The drug is tested on Bacteroides stercoris strain: ATCC43183 for biotransformation. The drug concentrations were measured before and after a 12-h incubation by liquid-chromatography-coupled mass spectrometry (LC–MS)

SMILES | Bacterial Biotransformation
CN(C)CC(c1ccc(O)cc1)C1(O)CCCCC1.O=C(O)CCC(=O)O (configuration not stated) [DESVENLAFAXINE SUCCINATE] | Compound NOT metabolized
CCc1nn(CCCN2CCN(c3cccc(Cl)c3)CC2)c(=O)n1CCOc1ccccc1 [NEFAZODONE] | Compound NOT metabolized

Assay: The drug is tested on Eubacterium rectale strain: ATCC33656 for biotransformation. The drug concentrations were measured before and after a 12-h incubation by liquid-chromatography-coupled mass spectrometry (LC–MS)
Conditions: agathobacter rectalis, 2 µM

SMILES | Bacterial Biotransformation
CCc1nn(CCCN2CCN(c3cccc(Cl)c3)CC2)c(=O)n1CCOc1ccccc1 [NEFAZODONE] | Compound NOT metabolized

Assay: The drug is tested on Bacteroides fragilis strain: HMW610 for biotransformation. The drug concentrations were measured before and after a 12-h incubation by liquid-chromatography-coupled mass spectrometry (LC–MS)
Conditions: 2 µM

SMILES | Bacterial Biotransformation
C=CCN1CC[C@]23c4c5ccc(O)c4O[C@H]2C(=O)CC[C@@]3(O)[C@H]1C5 [NALOXONE] | Compound metabolized
CN(C)CC(c1ccc(O)cc1)C1(O)CCCCC1.O=C(O)CCC(=O)O (configuration not stated) [DESVENLAFAXINE SUCCINATE] | Compound NOT metabolized
CCc1nn(CCCN2CCN(c3cccc(Cl)c3)CC2)c(=O)n1CCOc1ccccc1 [NEFAZODONE] | Compound NOT metabolized

Assay: The drug is tested on Blautia luti strain: DSM14534 for biotransformation. The drug concentrations were measured before and after a 12-h incubation by liquid-chromatography-coupled mass spectrometry (LC–MS)
Type: ADME
Set-up: dose 2 uM, timepoint 0 vs 12 hours
Conditions: 2 µM

SMILES | Bacterial Biotransformation
C=CCN1CC[C@]23c4c5ccc(O)c4O[C@H]2C(=O)CC[C@@]3(O)[C@H]1C5 [NALOXONE] | Compound NOT metabolized
CN(C)CC(c1ccc(O)cc1)C1(O)CCCCC1.O=C(O)CCC(=O)O (configuration not stated) [DESVENLAFAXINE SUCCINATE] | Compound NOT metabolized
CCc1nn(CCCN2CCN(c3cccc(Cl)c3)CC2)c(=O)n1CCOc1ccccc1 [NEFAZODONE] | Compound NOT metabolized

Assay: The drug is tested on Subdoligranulum variabile strain: DSM15176 for biotransformation. The drug concentrations were measured before and after a 12-h incubation by liquid-chromatography-coupled mass spectrometry (LC–MS)
Conditions: 2 µM

SMILES | Bacterial Biotransformation
C=CCN1CC[C@]23c4c5ccc(O)c4O[C@H]2C(=O)CC[C@@]3(O)[C@H]1C5 [NALOXONE] | Compound NOT metabolized
CN(C)CC(c1ccc(O)cc1)C1(O)CCCCC1.O=C(O)CCC(=O)O (configuration not stated) [DESVENLAFAXINE SUCCINATE] | Compound NOT metabolized
CCc1nn(CCCN2CCN(c3cccc(Cl)c3)CC2)c(=O)n1CCOc1ccccc1 [NEFAZODONE] | Compound NOT metabolized

Assay: The drug is tested on Alistipes indistinctus strain: DSM22520 for biotransformation. The drug concentrations were measured before and after a 12-h incubation by liquid-chromatography-coupled mass spectrometry (LC–MS)
Conditions: 2 µM

SMILES | Bacterial Biotransformation
CCc1nn(CCCN2CCN(c3cccc(Cl)c3)CC2)c(=O)n1CCOc1ccccc1 [NEFAZODONE] | Compound NOT metabolized

Assay: The drug is tested on Bacteroides fragilis strain: ATCC43859 for biotransformation. The drug concentrations were measured before and after a 12-h incubation by liquid-chromatography-coupled mass spectrometry (LC–MS)
Conditions: 2 µM

SMILES | Bacterial Biotransformation
C=CCN1CC[C@]23c4c5ccc(O)c4O[C@H]2C(=O)CC[C@@]3(O)[C@H]1C5 [NALOXONE] | Compound metabolized
CN(C)CC(c1ccc(O)cc1)C1(O)CCCCC1.O=C(O)CCC(=O)O (configuration not stated) [DESVENLAFAXINE SUCCINATE] | Compound NOT metabolized

Assay: The drug is tested on Edwardsiella tarda strain: ATCC23685 for biotransformation. The drug concentrations were measured before and after a 12-h incubation by liquid-chromatography-coupled mass spectrometry (LC–MS)
Conditions: 2 µM

SMILES | Bacterial Biotransformation
C=CCN1CC[C@]23c4c5ccc(O)c4O[C@H]2C(=O)CC[C@@]3(O)[C@H]1C5 [NALOXONE] | Compound NOT metabolized
CN(C)CC(c1ccc(O)cc1)C1(O)CCCCC1.O=C(O)CCC(=O)O (configuration not stated) [DESVENLAFAXINE SUCCINATE] | Compound NOT metabolized
CCc1nn(CCCN2CCN(c3cccc(Cl)c3)CC2)c(=O)n1CCOc1ccccc1 [NEFAZODONE] | Compound NOT metabolized

Assay: The drug is tested on Clostridium symbiosum strain: ATCC14940 for biotransformation. The drug concentrations were measured before and after a 12-h incubation by liquid-chromatography-coupled mass spectrometry (LC–MS)
Conditions: 2 µM

SMILES | Bacterial Biotransformation
CN(C)CC(c1ccc(O)cc1)C1(O)CCCCC1.O=C(O)CCC(=O)O (configuration not stated) [DESVENLAFAXINE SUCCINATE] | Compound NOT metabolized
CCc1nn(CCCN2CCN(c3cccc(Cl)c3)CC2)c(=O)n1CCOc1ccccc1 [NEFAZODONE] | Compound NOT metabolized

Assay: The drug is tested on Dorea formicigenerans strain: ATCC27755 for biotransformation. The drug concentrations were measured before and after a 12-h incubation by liquid-chromatography-coupled mass spectrometry (LC–MS)
Conditions: 2 µM

SMILES | Bacterial Biotransformation
C=CCN1CC[C@]23c4c5ccc(O)c4O[C@H]2C(=O)CC[C@@]3(O)[C@H]1C5 [NALOXONE] | Compound NOT metabolized
CN(C)CC(c1ccc(O)cc1)C1(O)CCCCC1.O=C(O)CCC(=O)O (configuration not stated) [DESVENLAFAXINE SUCCINATE] | Compound NOT metabolized
CCc1nn(CCCN2CCN(c3cccc(Cl)c3)CC2)c(=O)n1CCOc1ccccc1 [NEFAZODONE] | Compound NOT metabolized

Assay: The drug is tested on Collinsella intestinalis strain: DSM13280 for biotransformation. The drug concentrations were measured before and after a 12-h incubation by liquid-chromatography-coupled mass spectrometry (LC–MS)
Conditions: 2 µM

SMILES | Bacterial Biotransformation
C=CCN1CC[C@]23c4c5ccc(O)c4O[C@H]2C(=O)CC[C@@]3(O)[C@H]1C5 [NALOXONE] | Compound NOT metabolized
CN(C)CC(c1ccc(O)cc1)C1(O)CCCCC1.O=C(O)CCC(=O)O (configuration not stated) [DESVENLAFAXINE SUCCINATE] | Compound NOT metabolized
CCc1nn(CCCN2CCN(c3cccc(Cl)c3)CC2)c(=O)n1CCOc1ccccc1 [NEFAZODONE] | Compound NOT metabolized
